Assay results from PubChem BioAssay (NCI).
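All cell lines were grown in 96-well plates and treated with compound for 48 hours. TGI is the concentration that stops growth completely.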

Legend:
Assay in all cases: growth of human tumour cells (NCI), 48 h
A549 NSCLC = test system: A549 NSCLC
786-0 renal = test system: 786-0 renal
EKVX NSCLC = test system: EKVX NSCLC
RXF 393 renal = test system: RXF 393 renal
ACHN renal = test system: ACHN renal
UACC-257 melanoma = test system: UACC-257 melanoma
NCI-H522 lung = test system: NCI-H522 lung
SNB-19 CNS = test system: SNB-19 CNS
MCF7 breast = test system: MCF7 breast
UO-31 renal = test system: UO-31 renal
HT29 colon = test system: HT29 colon
IGROV1 ovarian = test system: IGROV1 ovarian
HCT-15 colon = test system: HCT-15 colon
SK-MEL-28 melanoma = test system: SK-MEL-28 melanoma
HCT-116 colon = test system: HCT-116 colon
DU-145 prostate = test system: DU-145 prostate
KM12 colon = test system: KM12 colon
SK-MEL-5 melanoma = test system: SK-MEL-5 melanoma
BT-549 breast = test system: BT-549 breast
CCRF-CEM leukemia = test system: CCRF-CEM leukemia

Oc1ccccc1/C=N/Nc1nc(N/N=C/c2ccccc2O)nc(N/N=C/c2ccccc2O)n1
TGI (A549 NSCLC): > 100 µM | TGI (786-0 renal): > 100 µM | TGI (EKVX NSCLC): > 100 µM | TGI (RXF 393 renal): > 100 µM | TGI (ACHN renal): > 100 µM | TGI (UACC-257 melanoma): > 100 µM | TGI (NCI-H522 lung): > 100 µM | TGI (SNB-19 CNS): > 100 µM | TGI (MCF7 breast): > 100 µM | TGI (UO-31 renal): > 100 µM | TGI (HT29 colon): > 100 µM | TGI (IGROV1 ovarian): > 100 µM | TGI (HCT-15 colon): > 100 µM | TGI (SK-MEL-28 melanoma): > 100 µM | TGI (HCT-116 colon): > 100 µM | TGI (DU-145 prostate): > 100 µM | TGI (KM12 colon): > 100 µM | TGI (SK-MEL-5 melanoma): > 100 µM | TGI (BT-549 breast): > 100 µM

N=C(c1ccc2ccccc2c1)c1ccccc1Cc1ccccc1
TGI (A549 NSCLC): > 100 µM | TGI (786-0 renal): > 100 µM | TGI (EKVX NSCLC): > 100 µM | TGI (RXF 393 renal): 34.4 µM | TGI (CCRF-CEM leukemia): 82.8 µM | TGI (ACHN renal): > 100 µM | TGI (UACC-257 melanoma): > 100 µM | TGI (SNB-19 CNS): > 100 µM | TGI (MCF7 breast): > 100 µM | TGI (UO-31 renal): > 100 µM | TGI (HT29 colon): > 100 µM | TGI (IGROV1 ovarian): > 100 µM | TGI (HCT-15 colon): > 100 µM | TGI (SK-MEL-28 melanoma): > 100 µM | TGI (HCT-116 colon): > 100 µM | TGI (DU-145 prostate): 96.6 µM | TGI (KM12 colon): > 100 µM | TGI (SK-MEL-5 melanoma): > 100 µM | TGI (BT-549 breast): > 100 µM

Cn1nc2ccc3nccc(N4CCN(CCO)CC4)c3c2n1
TGI (A549 NSCLC): > 100 µM | TGI (786-0 renal): > 100 µM | TGI (RXF 393 renal): > 100 µM | TGI (CCRF-CEM leukemia): > 100 µM | TGI (ACHN renal): > 100 µM | TGI (UACC-257 melanoma): > 100 µM | TGI (NCI-H522 lung): > 100 µM | TGI (SNB-19 CNS): > 100 µM | TGI (MCF7 breast): > 100 µM | TGI (UO-31 renal): > 100 µM | TGI (HT29 colon): > 100 µM | TGI (IGROV1 ovarian): > 100 µM | TGI (HCT-15 colon): > 100 µM | TGI (SK-MEL-28 melanoma): > 100 µM | TGI (HCT-116 colon): > 100 µM | TGI (DU-145 prostate): > 100 µM | TGI (KM12 colon): > 100 µM | TGI (SK-MEL-5 melanoma): > 100 µM | TGI (BT-549 breast): > 100 µM

CC1(C)O[C@@H]2[C@@H](COC(=O)c3ccccc3)C[C@@H](C#N)[C@@H]2O1
TGI (A549 NSCLC): > 100 µM | TGI (786-0 renal): > 100 µM | TGI (RXF 393 renal): > 100 µM | TGI (CCRF-CEM leukemia): > 100 µM | TGI (ACHN renal): > 100 µM | TGI (NCI-H522 lung): > 100 µM | TGI (SNB-19 CNS): > 100 µM | TGI (MCF7 breast): > 100 µM | TGI (UO-31 renal): > 100 µM | TGI (HT29 colon): > 100 µM | TGI (IGROV1 ovarian): > 100 µM | TGI (HCT-15 colon): > 100 µM | TGI (SK-MEL-28 melanoma): > 100 µM | TGI (HCT-116 colon): > 100 µM | TGI (DU-145 prostate): > 100 µM | TGI (KM12 colon): > 100 µM | TGI (SK-MEL-5 melanoma): > 100 µM | TGI (BT-549 breast): > 100 µM

FC(F)(Sc1ccccn1)c1nc2ccccc2o1
TGI (A549 NSCLC): > 100 µM | TGI (786-0 renal): > 100 µM | TGI (RXF 393 renal): > 100 µM | TGI (CCRF-CEM leukemia): > 100 µM | TGI (ACHN renal): > 100 µM | TGI (UACC-257 melanoma): > 100 µM | TGI (NCI-H522 lung): > 100 µM | TGI (MCF7 breast): > 100 µM | TGI (UO-31 renal): > 100 µM | TGI (HT29 colon): > 100 µM | TGI (IGROV1 ovarian): > 100 µM | TGI (HCT-15 colon): > 100 µM | TGI (SK-MEL-28 melanoma): > 100 µM | TGI (HCT-116 colon): > 100 µM | TGI (DU-145 prostate): > 100 µM | TGI (KM12 colon): > 100 µM | TGI (SK-MEL-5 melanoma): > 100 µM | TGI (BT-549 breast): > 100 µM

CC(C)(C)c1cc(C(C)(C)C)c(SS(=O)(=O)O)c(O)c1O
TGI (A549 NSCLC): > 100 µM | TGI (786-0 renal): > 100 µM | TGI (EKVX NSCLC): > 100 µM | TGI (RXF 393 renal): 97.9 µM | TGI (CCRF-CEM leukemia): > 100 µM | TGI (ACHN renal): > 100 µM | TGI (UACC-257 melanoma): > 100 µM | TGI (SNB-19 CNS): > 100 µM | TGI (MCF7 breast): > 100 µM | TGI (UO-31 renal): > 100 µM | TGI (HT29 colon): > 100 µM | TGI (IGROV1 ovarian): > 100 µM | TGI (HCT-15 colon): > 100 µM | TGI (SK-MEL-28 melanoma): > 100 µM | TGI (HCT-116 colon): > 100 µM | TGI (DU-145 prostate): > 100 µM | TGI (KM12 colon): > 100 µM | TGI (SK-MEL-5 melanoma): > 100 µM | TGI (BT-549 breast): > 100 µM

O=C1CC(O)c2c(Br)sc(Br)c21 (centres undefined)
TGI (A549 NSCLC): 43.4 µM | TGI (786-0 renal): 14.8 µM | TGI (EKVX NSCLC): 27.7 µM | TGI (RXF 393 renal): 5.51 µM | TGI (ACHN renal): 29.7 µM | TGI (UACC-257 melanoma): 17.4 µM | TGI (NCI-H522 lung): 29.4 µM | TGI (SNB-19 CNS): 34.9 µM | TGI (MCF7 breast): 15.5 µM | TGI (UO-31 renal): 7.19 µM | TGI (HT29 colon): 43.1 µM | TGI (IGROV1 ovarian): 31.9 µM | TGI (HCT-15 colon): 43 µM | TGI (SK-MEL-28 melanoma): 30.1 µM | TGI (HCT-116 colon): 26.7 µM | TGI (DU-145 prostate): 22.2 µM | TGI (KM12 colon): 20.8 µM | TGI (SK-MEL-5 melanoma): 34.5 µM | TGI (BT-549 breast): 63.1 µM

COc1cc(C2c3cc(O)c(OC)cc3C3OCC2C3CO)ccc1O (centres undefined)
TGI (A549 NSCLC): > 100 µM | TGI (786-0 renal): > 100 µM | TGI (EKVX NSCLC): > 100 µM | TGI (RXF 393 renal): > 100 µM | TGI (ACHN renal): > 100 µM | TGI (NCI-H522 lung): > 100 µM | TGI (SNB-19 CNS): > 100 µM | TGI (MCF7 breast): > 100 µM | TGI (UO-31 renal): > 100 µM | TGI (HT29 colon): > 100 µM | TGI (HCT-15 colon): > 100 µM | TGI (SK-MEL-28 melanoma): > 100 µM | TGI (HCT-116 colon): > 100 µM | TGI (DU-145 prostate): > 100 µM | TGI (KM12 colon): > 100 µM | TGI (SK-MEL-5 melanoma): > 100 µM | TGI (BT-549 breast): > 100 µM

O=C(COc1ccc(OCC(=O)N2C(=O)CSC2=Nc2ccccc2)cc1)N1C(=O)CSC1=Nc1ccccc1
TGI (A549 NSCLC): > 100 µM | TGI (786-0 renal): 63.2 µM | TGI (EKVX NSCLC): > 100 µM | TGI (RXF 393 renal): > 100 µM | TGI (ACHN renal): > 100 µM | TGI (UACC-257 melanoma): > 100 µM | TGI (NCI-H522 lung): 42.1 µM | TGI (SNB-19 CNS): > 100 µM | TGI (MCF7 breast): > 100 µM | TGI (UO-31 renal): > 100 µM | TGI (HT29 colon): 41.2 µM | TGI (IGROV1 ovarian): 82.8 µM | TGI (HCT-15 colon): > 100 µM | TGI (SK-MEL-28 melanoma): > 100 µM | TGI (HCT-116 colon): 27.3 µM | TGI (DU-145 prostate): > 100 µM | TGI (KM12 colon): 44.3 µM | TGI (SK-MEL-5 melanoma): 33.3 µM | TGI (BT-549 breast): > 100 µM

O=C(CCc1ccccc1)ON1C(=S)NC(c2ccccc2)(c2ccccc2)C1=S
TGI (A549 NSCLC): > 100 µM | TGI (786-0 renal): > 100 µM | TGI (EKVX NSCLC): > 100 µM | TGI (RXF 393 renal): 93 µM | TGI (CCRF-CEM leukemia): 93.4 µM | TGI (ACHN renal): > 100 µM | TGI (UACC-257 melanoma): > 100 µM | TGI (SNB-19 CNS): > 100 µM | TGI (MCF7 breast): > 100 µM | TGI (UO-31 renal): > 100 µM | TGI (HT29 colon): 93.6 µM | TGI (IGROV1 ovarian): 82.7 µM | TGI (HCT-15 colon): > 100 µM | TGI (SK-MEL-28 melanoma): > 100 µM | TGI (HCT-116 colon): > 100 µM | TGI (DU-145 prostate): > 100 µM | TGI (KM12 colon): 89.7 µM | TGI (SK-MEL-5 melanoma): 40.6 µM | TGI (BT-549 breast): > 100 µM

c1ccc2c(c1)nc1n2CCCn2ccnc2-1
TGI (A549 NSCLC): > 100 µM | TGI (786-0 renal): > 100 µM | TGI (EKVX NSCLC): > 100 µM | TGI (RXF 393 renal): > 100 µM | TGI (ACHN renal): > 100 µM | TGI (NCI-H522 lung): > 100 µM | TGI (SNB-19 CNS): > 100 µM | TGI (MCF7 breast): > 100 µM | TGI (UO-31 renal): > 100 µM | TGI (HT29 colon): > 100 µM | TGI (IGROV1 ovarian): > 100 µM | TGI (HCT-15 colon): > 100 µM | TGI (SK-MEL-28 melanoma): > 100 µM | TGI (HCT-116 colon): > 100 µM | TGI (DU-145 prostate): > 100 µM | TGI (KM12 colon): > 100 µM | TGI (SK-MEL-5 melanoma): > 100 µM | TGI (BT-549 breast): > 100 µM
